The NIST ThermoML archive (doi:10.1021/je900105g)
Where “and” joins values, the source holds several entries; their conditions need not be identical. Equal entries are not always repeated. ± gives the expanded uncertainty stated by the source.

Details: Liquid, Buoyancy - hydrostatic balance with magnetic suspension - one sinker

Cc1ccccc1 [toluene]
Details | mass density
293.14 K, 580 kPa | 867.3 ± 0.12 kg/m3
293.14 K, 2080 kPa | 868.44 ± 0.12 kg/m3
293.14 K, 2100 kPa | 868.49 ± 0.12 kg/m3
293.14 K, 4080 kPa | 869.92 ± 0.12 kg/m3
293.14 K, 6080 kPa | 871.41 ± 0.12 kg/m3
293.14 K, 8080 kPa | 872.84 ± 0.12 kg/m3
293.14 K, 10080 kPa | 874.27 ± 0.12 kg/m3
293.14 K, 10110 kPa | 874.35 ± 0.12 kg/m3
293.14 K, 15090 kPa | 877.74 ± 0.12 kg/m3
293.14 K, 15110 kPa | 877.83 ± 0.12 kg/m3
293.14 K, 20090 kPa | 881.09 ± 0.12 kg/m3
293.14 K, 20110 kPa | 881.18 ± 0.12 kg/m3
293.14 K, 25090 kPa | 884.33 ± 0.12 kg/m3
293.14 K, 25120 kPa | 884.42 ± 0.12 kg/m3
293.14 K, 30090 kPa | 887.47 ± 0.12 kg/m3
293.14 K, 30120 kPa | 887.56 ± 0.12 kg/m3
293.15 K, 2080 kPa | 868.48 ± 0.12 kg/m3
293.15 K, 4080 kPa | 869.98 ± 0.12 kg/m3
293.15 K, 6080 kPa | 871.45 ± 0.12 kg/m3
293.15 K, 8080 kPa | 872.9 ± 0.12 kg/m3
293.15 K, 10080 kPa | 874.33 ± 0.12 kg/m3
293.15 K, 15080 kPa | 877.8 ± 0.12 kg/m3
293.15 K, 20080 kPa | 881.15 ± 0.12 kg/m3
293.15 K, 25080 kPa | 884.39 ± 0.12 kg/m3
313.14 K, 590 kPa | 848.73 ± 0.12 kg/m3
313.14 K, 2090 kPa | 850.02 ± 0.12 kg/m3
313.14 K, 4090 kPa | 851.7 ± 0.12 kg/m3
313.14 K, 6090 kPa | 853.35 ± 0.12 kg/m3
313.14 K, 8090 kPa | 854.98 ± 0.12 kg/m3
313.14 K, 10090 kPa | 856.57 ± 0.12 kg/m3
313.14 K, 15090 kPa | 860.44 ± 0.12 kg/m3
313.14 K, 20090 kPa | 864.16 ± 0.12 kg/m3
313.14 K, 25090 kPa | 867.74 ± 0.12 kg/m3
333.14 K, 590 kPa | 829.86 ± 0.12 kg/m3
333.14 K, 2090 kPa | 831.32 ± 0.12 kg/m3
333.14 K, 4090 kPa | 833.23 ± 0.12 kg/m3
333.14 K, 6090 kPa | 835.1 ± 0.12 kg/m3
333.14 K, 8090 kPa | 836.93 ± 0.12 kg/m3
333.14 K, 10090 kPa | 838.73 ± 0.12 kg/m3
333.14 K, 15090 kPa | 843.06 ± 0.12 kg/m3
333.14 K, 20090 kPa | 847.2 ± 0.12 kg/m3
333.14 K, 25090 kPa | 851.15 ± 0.12 kg/m3
333.14 K, 30090 kPa | 854.96 ± 0.12 kg/m3
353.14 K, 2090 kPa | 812.26 ± 0.11 kg/m3
353.14 K, 4090 kPa | 814.44 ± 0.11 kg/m3
353.14 K, 6090 kPa | 816.57 ± 0.11 kg/m3
353.14 K, 8090 kPa | 818.63 ± 0.11 kg/m3
353.14 K, 10090 kPa | 820.66 ± 0.11 kg/m3
353.14 K, 15090 kPa | 825.54 ± 0.11 kg/m3
353.14 K, 20090 kPa | 830.16 ± 0.12 kg/m3
353.14 K, 25090 kPa | 834.54 ± 0.12 kg/m3
353.14 K, 30090 kPa | 838.72 ± 0.12 kg/m3
373.15 K, 590 kPa | 790.76 ± 0.11 kg/m3
373.15 K, 2090 kPa | 792.7 ± 0.11 kg/m3 and 792.76 ± 0.11 kg/m3
373.15 K, 4090 kPa | 795.21 ± 0.11 kg/m3 and 795.27 ± 0.11 kg/m3
373.15 K, 6090 kPa | 797.64 ± 0.11 kg/m3 and 797.7 ± 0.11 kg/m3
373.15 K, 8090 kPa | 800 ± 0.11 kg/m3 and 800.07 ± 0.11 kg/m3
373.15 K, 10090 kPa | 802.3 ± 0.11 kg/m3 and 802.37 ± 0.11 kg/m3
373.15 K, 15080 kPa | 807.86 ± 0.11 kg/m3
373.15 K, 15090 kPa | 807.78 ± 0.11 kg/m3
373.15 K, 20080 kPa | 813.03 ± 0.11 kg/m3
373.15 K, 25080 kPa | 817.91 ± 0.11 kg/m3
373.15 K, 30080 kPa | 822.54 ± 0.11 kg/m3
373.49 K, 2100 kPa | 792.38 ± 0.11 kg/m3
373.49 K, 10110 kPa | 802.04 ± 0.11 kg/m3
373.49 K, 15110 kPa | 807.56 ± 0.11 kg/m3
373.49 K, 20120 kPa | 812.74 ± 0.11 kg/m3
373.49 K, 25120 kPa | 817.63 ± 0.11 kg/m3
373.49 K, 30120 kPa | 822.28 ± 0.11 kg/m3
